Literature values in US20200390965A1, “TAILORED DOSE OF CONTRAST AGENT” (GE HEALTHCARE AS, priority 2017, published 2020).

Conditions: powder form; aggregates dissolve very slowly

Structure (SMILES): CC(=O)N(CC(O)CN(C(C)=O)c1c(I)c(C(=O)NCC(O)CO)c(I)c(C(=O)NCC(O)CO)c1I)c1c(I)c(C(=O)NCC(O)CO)c(I)c(C(=O)NCC(O)CO)c1I (centres unmarked) [iodixanol]
- solubility in water: highly soluble in water

Structure (SMILES): CC(=O)N(CC(O)CO)c1c(I)c(C(=O)NCC(O)CO)c(I)c(C(=O)NCC(O)CO)c1I (centres unmarked) [iohexol]
- solubility in water: highly soluble in water
